Data set [1] relates to MDCK cells expressing human MDR1 (P-glycoprotein). Put plainly: MDCK-MDR1 permeability A→B. It is filed as in vitro ADME, Canine. The procedure, abridged: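 Permeability measured apical-to-basolateral in MDCK cells expressing human MDR1, reported as binned ranges in cm/s×10^−6. Metabolic stability determined as half-life in mouse and human hepatocytes, reported as binned ranges in minutes.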

The nature of data set [2]: Metabolic stability in mouse liver microsomes. It is filed as in vitro ADME. The conditions noted are these: read-out: Mouse MS Stability t1/2. Here is the method: (§1) ADME studies: Compound A and the compounds of the disclosure were tested for aqueous solubility (KSOL), metabolic stability (human and mouse […]) and permeability (Caco-2 and/or MDR1-MDCK cells) to provide an initial indication of oral bioavailability.
(§2) The MDCK-MDR1 permeability A ->B is shown in Table 2 below, where A represents 5-10 cm/s×10^−6; B represents 1-5 cm/s×10^−6; and C represents <1 cm/ss×10^−6. The metabolic stability half time, in both mouse and human hepatocytes, is also shown in Table 2 below, where A′ represents 100-200 minutes; B′ represents 200-300 minutes; and C′ represents >300 minutes.
A general note: Liver microsomes are vesicles of endoplasmic reticulum, rich in cytochrome P450 enzymes.

Data set [3] in a line: Metabolic stability in human liver microsomes. Format: in vitro ADME. The conditions noted are these: read-out: Human MS Stability t1/2. Here is the method: as §1, §2
Data set [4] can be described thus: Kinetic aqueous solubility (KSOL) in PBS, pH 7.4. Format: physicochemical. The conditions noted are these: aqueous buffer, kinetic from dmso stock. Here is the method:
as §1
The favorable physicochemical properties are reflected in promising results in in vitro ADME tests. […] Metabolic stability, which was routinely measured with mouse and human hepatocytes, is outstanding, with t, greater than 2 hours for all of the compounds of the disclosure in which it has been measured. Cell permeability was measured using MDCK cells expressing human MDR1 (P-glycoprotein) to assess passive permeability as well as active transport out of the cell. […] Numerous compounds in Table 1 meet these permeability criteria, which is consistent with their design for TPSA <140 Å^2 and increased lipophilicity.

Data set [5] relates to IFNβ production in THP-1 cells. Put plainly: IFNβ ELISA in THP-1 cells. It is filed as cell-based, human. The conditions noted are these: Homo sapiens; THP-1 cells. The procedure, abridged: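 THP-1 cells stimulated with dsDNA or cGAMP (STING activation bypassing cGAS) in the presence of compound; IFNβ secreted into medium quantified by ELISA. IC50 values reported in potency bins.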
Background: ELISA stands for enzyme-linked immunosorbent assay.

In brackets after ≈: the same amount, converted by molar mass.

Regarding `Cc1nc(N2C[C@@H](CC(=O)Nc3ccncc3)C[C@H]2C(=O)O)c2oc3ccccc3c2n1` [Compound A, (2S,4R)-1-(2-methylbenzofuro[3,2-d]pyrimidin-4-yl)-4-(2-oxo-2-(pyridine-4-ylamino)ethyl)pyrrolidine-2-carboxylic acid, reference compound], the “MDCK-MDR Permeability A→B” value in data set [1] is recorded as “C (C represents <1 cm/ss×10^−6)”. Further, the half-life in data set [2] and in data set [3] was 1.67 to 3.33 h throughout. The compound also yielded a kinetic solubility in data set [4] of 542 µM (≈ 234 µg/mL). The IC50 in data set [5] was over 20 µM.

The term solubility (kinetic) denotes the concentration staying in solution when a stock, usually in DMSO, is diluted into the medium. One may read the IC50 as the point on the concentration scale where inhibition reaches its midpoint. High values mean lower potency, low ones higher potency.

The record behind these values is patent US20240174684A1, “INHIBITORS OF cGAS ACTIVITY AS THERAPEUTIC AGENTS” (BELLBROOK LABS, LLC, priority 2021, published 2024).
